Results on 15 compounds are retold here after ChEMBL document CHEMBL5344416, “Phenothiazines as anti-cancer agents: SAR overview and synthetic strategies” (Eur J Med Chem, 2023).

The subject of data set [1] is TC-32. As to the kind of experiment: Cytotoxicity against human TC-32 cells assessed as reduction in cell viability. Type of data set: functional, cell-based.
The test system of data set [2] is MCF7. As to the kind of experiment: Cytotoxicity against human MCF7 cells assessed as reduction in cell growth. Type of data set: functional, cell-based.
Data set [3] can be described thus: Cytotoxicity against human HFF-1 cells assessed as reduction of cell viability incubated for 72 hrs by CCK-8 assay. The class given is toxicity, cell-based. (In general: Tetrazolium assays rely on reduction of a dye to a coloured formazan, in cell work by metabolically active cells.)
Data set [4] deals with MCF7. As to the kind of experiment: Anticancer activity against human MCF7 cells assessed as cell growth inhibition incubated for 48 hrs by MTT assay. The class given is functional, cell-based. The note with it: MCF7, 48 h.
The subject of data set [5] is SNB-19. As to the kind of experiment: Anticancer activity against human SNB-19 cells assessed as reduction in cell growth by SRB assay. Type of data set: functional, cell-based.
Data set [6] concerns SNB-19. As to the kind of experiment: Antiproliferative activity against human SNB-19 cells assessed as cell growth inhibition incubated for 72 hrs by WST-1 assay. Type of data set: functional, cell-based. The note with it: SNB-19, 72 h.
Data set [7] relates to TC-32. As to the kind of experiment: Cytotoxicity against human TC-32 cells assessed as reduction in cell viability incubated for 48 hrs by CellTiter-Blue reagent based […] assay. The class given is functional. The note with it: TC-32, 48 h.
The subject of data set [8] is T47D. As to the kind of experiment: Antiproliferative activity against human T47D cells assessed as cell growth inhibition after 48 hrs by SRB assay. Type of data set: functional, cell-based. Background: In SRB staining, fixed cells bind dye roughly in proportion to their protein.
Data set [9] has as its system MKN-28. As to the kind of experiment: Antiproliferative activity against human MKN-28 cells assessed as reduction in cell viability by MTT assay. Type of data set: functional, cell-based.
For data set [10], the system named is MGC-803. As to the kind of experiment: Antiproliferative activity against human MGC-803 cells assessed as reduction in cell growth by MTT assay. Type of data set: functional, cell-based.
Data set [11] has as its system MKN-45. As to the kind of experiment: Antiproliferative activity against human MKN-45 cells assessed as cell growth inhibition by MTT assay. The class given is functional, cell-based.
Data set [12] relates to MCF7. As to the kind of experiment: Antiproliferative activity against human MCF7 cells assessed as cell growth inhibition by MTT assay. The class given is functional, cell-based.
A short description of data set [13]: Antioxidant activity assessed as DPPH radical scavenging activity incubated for 30 mins. The class given is functional. In general terms: The DPPH test is a chemical assay of radical scavenging.
For data set [14], the system named is ASPC1. As to the kind of experiment: Anticancer activity against human ASPC1 cells assessed as reduction in cell growth incubated for 72 hrs by MTT assay. The class given is functional, cell-based. Particulars: ASPC1, 72 h.
Data set [15] relates to SW1990. As to the kind of experiment: Anticancer activity against human SW1990 cells assessed as reduction in cell viability incubated for 72 hrs by MTT assay. Particulars: SW1990, 72 h. The class given is functional, cell-based.
In data set [16] the test system is TC-32. As to the kind of experiment: Anticancer activity against human TC-32 cells assessed as reduction in cell growth incubated for 48 hrs by SRB assay. The class given is functional, cell-based. Particulars: TC-32, 48 h.
Data set [17] deals with SNB-19. As to the kind of experiment: Anticancer activity against human SNB-19 cells assessed as reduction in cell growth incubated for 48 hrs by SRB assay. The class given is functional, cell-based. Particulars: SNB-19, 48 h.
The test system of data set [18] is MDA-MB-231. As to the kind of experiment: Anticancer activity against human MDA-MB-231 cells assessed as reduction in cell viability measured after 72 hrs by MTT assay. The note with it: MDA-MB-231, 72 h. Type of data set: functional, cell-based.
Data set [19] relates to SNB-19. As to the kind of experiment: Antiproliferative activity against human SNB-19 cells assessed as reduction in cell proliferation incubated for 72 hrs by WST-1 assay. The class given is functional, cell-based. Particulars: SNB-19, 72 h.
The test system of data set [20] is MDA-MB-231. As to the kind of experiment: Antiproliferative activity against human MDA-MB-231 cells assessed as reduction in cell proliferation incubated for 72 hrs by WST-1 assay. Type of data set: functional, cell-based. The note with it: MDA-MB-231, 72 h.
Data set [21] relates to TC-32. As to the kind of experiment: Antiproliferative activity against human TC-32 cells assessed as reduction in cell proliferation incubated for 72 hrs by WST-1 assay. The class given is functional, cell-based. Particulars: TC-32, 72 h.
Data set [22] deals with U-251. As to the kind of experiment: Antiproliferative activity against human U-251 cells assessed as reduction in cell viability incubated for 48 hrs by MTT assay. The class given is functional, cell-based. The note with it: U-251, 48 h.
Data set [23] deals with U-87 MG. As to the kind of experiment: Antiproliferative activity against human U87 cells assessed as reduction in cell viability incubated for 48 hrs by MTT assay. Type of data set: functional, cell-based, U-87MG ATCC.
In data set [24] the test system is CT26. As to the kind of experiment: Antitumor activity against mouse CT26 cells assessed as reduction in cell viability incubated for 4 hrs by MTT assay. Type of data set: functional, cell-based. The note with it: CT26, 4 h.
The subject of data set [25] is CT26. As to the kind of experiment: Antitumor activity against mouse CT26 cells assessed as tumor growth inhibition incubated for 4 hrs by MTT assay relative to control. Also noted: scale not given: the % may be the effect or the level left. Type of data set: functional.
The subject of data set [26] is MCF7. As to the kind of experiment: Antitumor activity against human MCF7 cells assessed as inhibition of cell growth at 1000 ug measured after 48 hrs by spectrophotometric analysis relative to control. Type of data set: functional. The note with it: dose 1000 µg. Further details: scale not given: the % may be the effect or the level left.
Data set [27] relates to MCF7. As to the kind of experiment: Antitumor activity against human MCF7 cells assessed as increase in LDH level at 1000 ug relative to control. Type of data set: functional. The note with it: dose 1000 µg.
The subject of data set [28] is A549. As to the kind of experiment: Anticancer activity against human A549 cells assessed as inhibition of cell proliferation measured after 48 hrs by MTT assay. The class given is functional, cell-based. The note with it: A549, 48 h.
Data set [29] concerns HepG2. As to the kind of experiment: Anticancer activity against human HepG2 cells assessed as inhibition of cell proliferation measured after 48 hrs by MTT assay. The class given is functional, cell-based. Particulars: HepG2, 48 h.
Data set [30] concerns MCF7. As to the kind of experiment: Anticancer activity against human MCF7 cells assessed as inhibition of cell growth incubated for 48 hrs by MTT assay. Type of data set: functional, cell-based. The note with it: MCF7, 48 h.
The nature of data set [31]: Antioxidant activity assessed as ABTS radical scavenging activity. The class given is functional.
The test system of data set [32] is MCF7. As to the kind of experiment: Cytotoxicity against human MCF7 cells assessed as reduction in cell viability by MTT assay. The class given is functional, cell-based.
Data set [33] is described as follows: Antioxidant activity assessed as DPPH radical scavenging activity. The class given is functional.

Regarding `c1cnc2c(c1)Nc1ccncc1S2`, the IC50 (as a rule, the concentration at which inhibition is half-maximal) in data set [1] is 0.72 µM; in data set [2], 0.46 µM; in data set [4] it was 8.3 µM; in data set [5], 0.58 µM. Also, in [3], the IC50 at 72 h is 38.6 µM.
As for `CN1CCN(CC#CCN2c3ccncc3Sc3ccncc32)CC1`, the half-inhibitory concentration (IC50) in data set [6] came to 21.2 µM; in data set [7] it was 35 µM; in data set [8], 9.6 µM.
Regarding `COc1ccc(-n2cc(CN3c4ccccc4Sc4ccccc43)nn2)c([N+](=O)[O-])c1`, the 50% inhibitory concentration (IC50) was determined as 2.7 µM in data set [9], 1.2 µM in [10] and 3.5 µM in data set [11].
As to `CN(C)CCN1CCN(CCCN2c3ccccc3Sc3ccc(C(F)(F)F)cc32)CC1`, the IC50 in data set [12] was found to be 0.42 µM.
Regarding `CCCCCN1c2ccccc2Sc2cc(/C=C(\C#N)C(N)=O)ccc21`, the IC50 in data set [13] came to 37.3 µM; in data set [14], 25.3 µM; in data set [15], 13.3 µM.
`CCN(C)CC#CCN1c2ccncc2Sc2ncccc21`: the figures for the half-maximal inhibitory concentration (IC50) in [16], in [17] and in data set [18] were 1.53 µM, 0.11 µM and 2.81 µM, respectively.
Take `C#CCN1c2ncccc2Sc2cccnc21`: the IC50 in data set [19] is 3.85 µM; in data set [20], 14.1 µM; in data set [21], 3.37 µM.
As for `CSc1ccc2c(c1)N(CCCn1ccc(=O)[nH]c1=O)c1ccccc1S2`, the IC50 in [4] was 1.35 µM.
`O=[N+]([O-])c1ccccc1S(=O)(=O)N1c2ccccc2Sc2ccc(Cl)cc21`: the results for the concentration for half-maximal inhibition (IC50) in data set [22] and in data set [23] were 9.29 µM and 5.12 µM, respectively.
As for `CCN(CC)CC#CCN1c2ccncc2Sc2ncccc21`, the IC50 in data set [16] is 0.54 µM; in data set [17], 0.11 µM; in data set [18], 6.32 µM.
Turning to `COCCOCCOCCOCCOCCOCCOCCOCCOCCOCCOCCOC(=O)CN1c2ccccc2Sc2ccccc21`, the half-inhibitory concentration (IC50) in data set [24] came out at 286 µM. Also, the Activity in [25] is listed as 92%.
With `CN1c2ccccc2Sc2cc(/C=N/NC(=O)Cn3c4ccccc4c4ccccc43)ccc21`, the Activity in [26] and in [27] was 48% each time.
For `COc1ccc(N/N=C2/SC(N/N=C(\C)c3ccc4c(c3)Nc3ccccc3S4)=NC2=O)cc1`, the 50% inhibitory concentration (IC50) in data set [28] and in data set [29] was 5.37 µM in each case.
On to `COCCSc1nnc(CN2c3ccccc3Sc3ccc(Cl)cc32)s1`, for which the IC50 in data set [30] is 3.45 µM.
For the compound `C/C(=N\c1ccc(/N=N/c2ccccc2)cc1)c1ccc2c(c1)Nc1ccccc1S2`, the half-inhibitory concentration (IC50) in data set [31] turned out to be 41.1 µM; in data set [32], 34.6 µM; in [33], 37.3 µM.
